We go through 1 compound from patent US11045435B2, “Methods for treating ocular diseases” (NATUREWISE BIOTECH & MEDICALS CORPORATION, priority 2016, dated 2021).

Data set [1] has as its system HUVECs. The data set can be described thus: MTT viability / proliferation of HUVECs. Particulars: 72 h. Type of data set: cell-based, human. Here is the method: (§1) ARPE-19 cells were grown in DMEM/F12 medium supplemented with 10% FBS, 100 units/ml penicillin G, and 100 μg/ml streptomycin sulfate. HUVECs were grown in vascular cell basal medium supplemented with endothelial cell growth kit. Cells were incubated in a humidified incubator at 37° C. under 5% CO2 and 95% air.
(§2) MTT assay was used to measure the viability of ARPE-19 cells and HUVECs. 2×10^5 ARPE-19 cells or 5×10^4 HUVECs were seeded in 96-well plates ([…]) and allowed to grow overnight. Negative control was prepared by adding 100 μl medium without cells. The cells were then treated with fresh medium with COMPOUND I (0.03, 0.1, 0.3, 1, 3 and 10 μg/ml) and/or oxidants (NaIO3, H2O2, t-BHP and NaN3) for 12, 24, or 72 hours (200 μl/well). The vehicle control group was treated with vehicle. 20 μl MTT (5 mg/ml) was added to wells, and incubated for another 4 h. After incubation, the medium was discarded and 100 μl DMSO was added to solubilize formazan produced from MTT by the viable cells. Absorbance was measured at 570 nm using a microplate reader (Bio-Rad Laboratories, Inc., CA). Cells viability was calculated according to the following formula: Viability of cells (%)=(absorbance in tested sample−absorbance in negative control)/(absorbance in vehicle control−absorbance in negative control)×100%.

The test system of data set [2] is ARPE-19 cells. The data set can be described thus: MTT viability / proliferation of ARPE-19 cells. Type of data set: cell-based, human. Particulars: 72 h. Here is the method:
as §1, §2

Data set [3] is described as follows: Hypoxia-induced injury in HUVECs (MTT). The conditions noted are these: human, 1% O2, read-out: decrease of viability in hypoxic condition. Type of data set: cell-based. Here is the method: as §2
Cells were allowed to attach overnight, and then exposed to COMPOUND I or vehicle under hypoxic condition for 72 h. Hypoxic conditions (1% O2, 5% CO2 and 94% N2) were maintained by using a temperature and humidity controlled environmental C-chamber by O2 and CO2 controllers (Proox Model 110 and Pro CO2 model 120, Biospherix Ltd., Redfield, N.Y., USA) with N2 and CO2 gas sources.

The subject of data set [4] is HUVECs. Description: t-BHP-induced injury in HUVECs (MTT). Format: cell-based, human. The conditions noted are these: 12 h; for reversal of t-BHP-induced injury: 200 I-M t-BHP; for enhancement of t-BHP-induced injury: 10 μg/ml. Here is the method: as §2
For data set [5], the system named is ARPE-19 cells. The data set can be described thus: H2O2-induced injury in ARPE-19 cells (MTT). Format: cell-based, human. Particulars: 3 μg/ml and 10 μg/ml; 400, M and 600 μM H2O2; 24 h. Here is the method:
as §2

Data set [6] has as its system Blood-Retinal Barrier Breakdown in Streptozotocin-Induced Diabetic Macular Edema. The data set can be described thus: Evans blue leakage (blood-retinal barrier breakdown) in streptozotocin-induced diabetic macular edema. Format: in vivo, Sprague-Dawley female rats. Here is the method:
After a 16-hour fast, Sprague-Dawley female rats weighing 200-220 g received a single 60 mg/kg intraperitoneal injection of Streptozotocin (STZ; Sigma-Aldrich, St. Louis, Md.) in 10 mM sodium citrate buffer (pH 4.5; Sigma-Aldrich, St. Louis, Md.). Control rats were fasted and received the buffer alone. Rats with blood glucose levels higher than 375 mg/dL 7 days after receiving STZ were considered to be diabetic. Body weight and blood glucose were detected every week. All experiments were performed in accordance with regulations specified by the Guide for the Care and Handling of Laboratory Animals (NIH Publication no. 85-23). For the treatments, rats were instilled with 0.5% and 1% COMPOUND I eye drops. Both eyes of all rats were instilled with 1 drop of ophthalmic solution 3 times a day for 6 weeks after diabetes production. Rats were treated with 0.5% and 1% COMPOUND I or vehicle solution eye drops 3 times a day for […] after glucose levels determination. Animal care and treatment were followed by the institutional guidelines. After induction of general anesthesia, the right jugular vein and right iliac artery were cannulated with 0.28- and 0.58-mm internal diameter polyethylene tubing, respectively, which were filled with heparinized saline (50 IU heparin/ml saline). Evans blue (Sigma-Aldrich, St. Louis, Md.) was injected through the jugular vein over 10 seconds at a dosage of 45 mg/kg. Immediately after Evans blue infusion, the rats turned visibly blue, confirming their uptake and distribution of the dye. Subsequently, at 15-minute intervals, 0.1 ml blood was drawn from the iliac artery for 2 hours to obtain the time-averaged plasma Evans blue concentration. After the dye had circulated for 120 minutes, the chest cavity was opened, and rats were perfused for 2 minutes via the left ventricle at 37° C. with 0.05 M, pH 3.5, citrate-buffered paraformaldehyde (Sigma-Aldrich, St. Louis, Md.). A pH of 3.5 was used to optimize binding of Evans blue to albumin and the perfusion solution was warmed to 37° C. to prevent vasoconstriction. Immediately after perfusion, both eyes were enucleated and dissected at the equator. The retinas were carefully dissected away under an operating microscope and thoroughly dried in vacuum equipment for 5 hours. The dry weight was used to normalize the quantitation of Evans blue leakage. Evans blue was extracted by incubating each retina in […] formamide (Sigma-Aldrich. St. Louis. Md.) for 18 hours at 70° C. […] The background-subtracted absorbance was determined by measuring each sample at both 620 nm, the absorbance maximum for Evans blue in formamide, and 740 nm, the absorbance minimum. The concentration of dye in the extracts was calculated from a standard curve of Evans blue in formamide. […]

For data set [7], the system named is HUVECs. Description: NaN3-induced injury in HUVECs (MTT). The conditions noted are these: 72 h. Format: cell-based, human. Here is the method:
as §2

Data set [8] has as its system ARPE-19 cells. Description: t-BHP-induced injury in ARPE-19 cells (MTT). Type of data set: cell-based, human. Particulars: 0.03 μg/ml to 10 µg/ml, 12 h. Here is the method:
as §2

Each structure is given as a SMILES string.

In general, inhibition refers to the drop in the measured response relative to a control, in per cent.

For the compound `COc1ccc(COc2c(/C=C/C(=O)NO)ccc(OC)c2CC=C(C)C)cc1` [COMPOUND I], the “effect on cell growth” value with HUVECs [1] (0.03 μg/ml to 1 μg/ml) and with ARPE-19 cells [2] (0.03 μg/ml to 1 μg/ml) was “did not affect cell growth” each time. In addition, the inhibition at 10 µg/mL was 47% with HUVECs [1] (Homo sapiens, HUVEC, 10 μg/ml) and 36% in the data set with ARPE-19 cells [2] (Homo sapiens, ARPE-19, 10 μg/ml). In addition, the cytotoxicity at 72 h, 10 μg/ml in data set [3] came to 98%. For the same compound, the “reversal of t-BHP-induced injury” value was 26% with HUVECs [4] (1 μg/ml) and 28% in the data set with HUVECs [4] (3 μg/ml). For the same compound, the “enhancement of t-BHP-induced injury” value with HUVECs [4] (50 μM t-BHP) was 40%; in the data set on HUVECs [4] (100 μM t-BHP), 20%; with HUVECs [4] (200 μM t-BHP), 51%. In addition, the “effect on H2O2-induced injuries” value in the data set with ARPE-19 cells [5] is reported as “reversed”. Moreover, the “Evans blue leakage, diabetic vehicle control group as 100%” value worked out at 68% in data set [6] (0.5% eye drops 3 times a day) and 56% in data set [6] (1% eye drops 3 times a day). Moreover, the “Evans blue leakage, in words” value in data set [6] (0.5% eye drops 3 times a day) is reported as “partially”. In addition, the “Evans blue leakage / BRB breakdown, in words” value in data set [6] (1% eye drops 3 times a day, listed as BMX) is “completely restored”. In addition, the “enhancement of NaN3-induced injury” value with HUVECs [7] (10 µg/ml, 3 mM NaN3) is listed as 72%; with HUVECs [7] ([…], 0.3 mM NaN3), 65%; with HUVECs [7] ([…], 1 mM NaN3), 52%. The “effect on NaN3-induced injury” value in the data set with HUVECs [7] (From 0.03 μg/ml) is “didn't affect”. The “effect on 200 μM t-BHP-induced injury” value with ARPE-19 cells [8] is listed as “reversed”.
